Where “and” joins values, the source holds several entries; their conditions need not be identical. Equal entries are not always repeated.
For `Nc1ccccc1C(F)(F)F` [2-(trifluoromethyl)aniline], the melting point was -30 °C and -29 °C.

Compared with `CC(=O)Oc1ccccc1C(=O)O` [2-Acetoxybenzoic acid], `O=C(O)c1ccccc1OP(=O)(O)O` [2-carboxyphenyl phosphate] is higher in melting point: 139 °C for the first, 164 °C for the second.

First: NCCS(=O)(=O)O [2-Aminoethanesulfonic acid]
Second: CC#CCOS(=O)(=O)c1ccc(C)cc1 [2-butynyl p-toluenesulfonate]
The melting point of the first is higher: 300 °C for the first, 48 °C for the second.

Going from `C=C(CC1c2ccccc2C(=O)N1Cc1ccccc1)c1ccccc1` (configuration not stated) [2-Benzyl-3-(2-phenyl-2-propenyl)isoindolin-1-one] to `O=C(c1ccccc1)c1ccccc1Cl` [2-chlorobenzophenone], the melting point falls from 70.5 °C to 46 °C.

Compared with `O=C(O)c1ccccc1Br` [2-Bromobenzoic acid], `O=C(O)c1ccccc1Br` [2-bromobenzoic acid] is lower in melting point: 149 °C for the first, 148 °C for the second.

First: CSC(SC)=C(C#N)C(N)=O [2-Cyano-3,3-bis(methylsulfanyl)acrylamide]
Second: N#CCC(=O)c1ccccc1Cl [2-chlorobenzoylacetonitrile]
The melting point of the first is higher: 102 °C for the first, 56 °C for the second.

Going from `CCOC(C)(C)C` [2-Ethoxy-2-methylpropane] to `CC(C)(C)I` [2-Iodo-2-methylpropane], the melting point rises from -94 °C to -38 °C.

First: CCOCCO [2-Ethoxyethanol]
Second: OCCSSCCO [2-Hydroxyethyl Disulfide]
The melting point of the first is lower: -90 °C for the first, 26 °C for the second.

First: CCCCCCCCCCCCCCCCC1CO1 (configuration not stated) [2-Hexadecyloxirane]
Second: CCCCCCC(C)C [2-Methyloctane]
The melting point of the first is higher: 26 °C for the first, -80 °C for the second.

First: O=C(c1ccccc1)C(O)c1ccccc1 (configuration not stated) [2-Hydroxy-1,2-diphenylethanone]
Second: O=C(O)c1ccccc1C(=O)c1ccccc1 [2-benzoylbenzoic acid]
The melting point of the first is higher: 135 °C for the first, 129 °C for the second.

Compared with `O=C(O)c1ccccc1I` [2-Iodobenzoic acid], `O=C(O)c1ccccc1Cl` [2-chlorobenzoic acid] is lower in melting point: 162 °C for the first, 140 °C for the second.

Compared with `Oc1ccccc1I` [2-Iodophenol], `Oc1ccccc1Cl` [2-chlorophenol] is lower in melting point: 38.5 °C for the first, 8 °C for the second.

Going from `COc1ccccc1O` [2-Methoxyphenol] to `C=CCc1ccccc1O` [2-allylphenol], the melting point falls from 28 °C to -6 °C.

Compared with `Cc1c(C(=O)O)cc([N+](=O)[O-])cc1[N+](=O)[O-]` [2-Methyl-3,5-dinitrobenzoic acid], `O=C(O)c1cc([N+](=O)[O-])ccc1Cl` [2-chloro-5-nitrobenzoic acid] is lower in melting point: 206 °C for the first, 167 °C for the second.

Compared with `Cc1ccc([N+](=O)[O-])cc1N` [2-Methyl-5-nitroaniline], `Cc1ccc([N+](=O)[O-])cc1Br` [2-bromo-4-nitrotoluene] is lower in melting point: 108 °C for the first, 76 °C for the second.

Compared with `CC(C)(C)N` [2-Methylpropan-2-amine], `CC(C)(C)Br` [2-bromo-2-methylpropane] is higher in melting point: -67 °C for the first, -16 °C for the second.

Compared with `Oc1ccc2ccccc2c1` [2-Naphthol], `Brc1ccc2ccccc2c1` [2-bromonaphthalene] is lower in melting point: 122 °C for the first, 55 °C for the second.

First: O=[N+]([O-])c1cc(Cl)ccc1O [2-Nitro-4-chlorophenol]
Second: O=[N+]([O-])c1ccc(O)c(Cl)c1 [2-chloro-4-nitrophenol]
The melting point of the first is lower: 89 °C for the first, 110 °C for the second.

First: O=C(O)c1ccccc1[N+](=O)[O-] [2-Nitrobenzoic acid]
Second: O=C(O)c1c(Cl)cccc1[N+](=O)[O-] [2-chloro-6-nitrobenzoic acid]
The melting point of the first is lower: 147 °C for the first, 164 °C for the second.

Compared with `O=C1OC(c2ccccc2)=NC1=Cc1ccco1` [2-Oxazolin-5-one, 4-furfurylidene-2-phenyl-], `O=C1OC(c2ccccc2)=NC1=Cc1ccc(-c2ccccc2)o1` [2-Phenyl-4-(5-phenyl-furan-2-ylmethylene)-4H-oxazol-5-one] is lower in melting point: 159 °C for the first, 143 °C for the second.

First: OCCc1ccccc1 [2-Phenyl-Ethanol]
Second: OCc1ccccc1Cl [2-chlorobenzyl alcohol]
The melting point of the first is lower: -27 °C for the first, 70 °C for the second.

Compared with `O=C1C=C(NCCc2ccccn2)C(=O)c2ccccc21` [2-[(2-pyridin-2-ylethyl)amino]naphthalene-1,4-dione], `Brc1ccccc1-c1ccccc1` [2-bromobiphenyl] is lower in melting point: 129 °C for the first, 2 °C for the second.

Going from `CC(=O)Nc1ccc([N+](=O)[O-])cn1` [2-acetamido-5-nitropyridine] to `O=C(O)c1ccc([N+](=O)[O-])cc1Cl` [2-chloro-4-nitrobenzoic acid], the melting point falls from 200 °C to 142 °C.

Compared with `CC(=O)Nc1nccs1` [2-acetamidothiazole], `CC(=O)c1ccc(Cl)s1` [2-acetyl-5-chlorothiophene] is lower in melting point: 203 °C for the first, 46 °C for the second.

Going from `CC(=O)OCC(=O)c1ccccc1` [2-acetoxy_acetophenone] to `O=C(O)Cc1ccccc1Cl` [2-chlorophenylacetic acid], the melting point rises from 89 °C to 96 °C.

First: CC(=O)c1ccc2ccccc2c1 [2-acetylnaphthalene]
Second: OB(O)c1cc2ccccc2nc1Br [2-bromoquinoline-3-boronic acid]
The melting point of the first is lower: 54 °C for the first, 146 °C for the second.

Going from `CC(C)(C)N` [2-amino-2-methylpropane] to `CC(Br)C(C)(C)C` (configuration not stated) [2-bromo-3,3-dimethylbutane], the melting point rises from -68 °C to 25 °C.

Going from `CCc1ccc(C)nc1N` [2-amino-3-ethyl-6-methylpyridine] to `Cc1ccc(N)c(Br)c1` [2-bromo-4-methylaniline] [listing 1 of 2 here], the melting point falls from 47 °C to 14 °C.

First: Nc1ncccc1O [2-amino-3-hydroxypyridine]
Second: O=Cc1cccnc1Cl [2-chloropyridine-3-carboxaldehyde]
The melting point of the first is higher: 170 °C for the first, 52 °C for the second.

Going from `Nc1cc(F)c(F)cc1C(=O)O` [2-amino-4,5-difluorobenzoic acid] to `Nc1cc(C(F)(F)F)ccc1Cl` [2-chloro-5-(trifluoromethyl)aniline], the melting point falls from 182 °C to 9 °C.

Compared with `Nc1nc(-c2ccc(Br)cc2)cs1` [2-amino-4-(4-bromophenyl)thiazole], `Nc1nc2ccc([N+](=O)[O-])cc2s1` [2-amino-6-nitrobenzothiazole] is higher in melting point: 184 °C for the first, 248 °C for the second.

First: CCSc1nnc(N)s1 [2-amino-5-ethylthio-1,3,4-thiadiazole]
Second: CCNc1nc(Cl)nc(NCC)n1 [2-chloro-4,6-bis(ethylamino)-1,3,5-triazine]
The melting point of the first is lower: 132 °C for the first, 228 °C for the second.

First: CCC(C)N (configuration not stated) [2-aminobutane]
Second: CCC(C)S (configuration not stated) [2-butanethiol]
The melting point of the first is higher: -104 °C for the first, -140 °C for the second.

First: O=C(O)C(=Cc1ccccc1)Cc1ccccc1 [2-benzyl-3-phenylacrylic acid]
Second: OB(O)c1cccnc1OCc1ccccc1 [2-benzyloxypyridine-3-boronic acid]
The melting point of the first is higher: 158 °C for the first, 146 °C for the second.

Going from `CCN(CC)c1ccc(C(=O)CBr)cc1` [2-bromo-4'-(diethylamino)acetophenone] to `CCOC(=O)N1c2ccccc2C=CC1OCC` (configuration not stated) [2-ethoxy-1-ethoxycarbonyl-1,2-dihydroquinoline], the melting point rises from 51 °C to 65 °C.

First: Cc1ccc(N)c(Br)c1 [2-bromo-4-methylaniline] [listing 2 of 2 here]
Second: Cc1ccc(Cl)c(N)c1 [2-chloro-5-methylaniline]
The melting point of the first is lower: 15 °C for the first, 32 °C for the second.

Compared with `OCc1ccnc(Br)c1` [2-bromo-4-pyridinemethanol], `FC(F)(F)c1ccc(Br)nc1` [2-bromo-5-(trifluoromethyl)pyridine] is lower in melting point: 61 °C for the first, 46 °C for the second.

First: Cc1c(Br)cccc1[N+](=O)[O-] [2-bromo-6-nitrotoluene]
Second: Cc1c(Cl)cccc1[N+](=O)[O-] [2-chloro-6-nitrotoluene]
The melting point of the first is higher: 40 °C for the first, 36 °C for the second.

Compared with `Brc1nc2ccccc2[nH]1` [2-bromobenzimidazole], `Clc1nc2ccccc2[nH]1` [2-chlorobenzimidazole] is lower in melting point: 198 °C for the first, 183 °C for the second.

First: CC(C)Br [2-bromopropane]
Second: CC(C)Cl [2-chloropropane]
The melting point of the first is higher: -89 °C for the first, -117 °C for the second.

Compared with `OCC#CCO` [2-butyne-1,4-diol], `CCCC(C)Cl` (configuration not stated) [2-chloropentane] is lower in melting point: 57 °C for the first, -137 °C for the second.

First: O=C(CCl)Nc1ccccc1[N+](=O)[O-] [2-chloro-2'-nitroacetanilide]
Second: ClCc1ccccc1Cl [2-chlorobenzyl chloride]
The melting point of the first is higher: 88 °C for the first, -13 °C for the second.

Compared with `N#Cc1cc(-c2ccccc2)cnc1Cl` [2-chloro-3-cyano-5-phenylpyridine], `N#Cc1ccccc1C=O` [2-cyanobenzaldehyde] is lower in melting point: 145 °C for the first, 104 °C for the second.

Compared with `OB(O)c1ccc(C(F)(F)F)cc1Cl` [2-chloro-4-(trifluoromethyl)benzeneboronic acid], `COc1ccc(B(O)O)c(Cl)c1` [2-chloro-4-methoxybenzeneboronic acid] is higher in melting point: 111 °C for the first, 202 °C for the second.

First: CN(C)c1ccc(C=O)c(Cl)c1 [2-chloro-4-dimethylaminobenzaldehyde]
Second: Cc1ccc(Cl)c(O)c1 [2-chloro-5-methylphenol]
The melting point of the first is higher: 80 °C for the first, 47 °C for the second.

Going from `Oc1ccc(F)cc1Cl` [2-chloro-4-fluorophenol] to `Oc1cccc(Cl)n1` [2-chloro-6-hydroxypyridine], the melting point rises from 22 °C to 130 °C.

Going from `COc1ccc(CC#N)c(Cl)c1` [2-chloro-4-methoxyphenylacetonitrile] to `N#Cc1ccc([N+](=O)[O-])cc1Cl` [2-chloro-4-nitrobenzonitrile], the melting point rises from 42 °C to 80 °C.

Compared with `Nc1ccc([N+](=O)[O-])cc1Cl` [2-chloro-4-nitroaniline], `Nc1cc([N+](=O)[O-])ccc1Cl` [2-chloro-5-nitroaniline] is higher in melting point: 108 °C for the first, 119 °C for the second.

First: O=[N+]([O-])c1cc[n+]([O-])c(Cl)c1 [2-chloro-4-nitropyridine n-oxide]
Second: Cc1cc([N+](=O)[O-])ccc1Cl [2-chloro-5-nitrotoluene]
The melting point of the first is higher: 154 °C for the first, 43 °C for the second.

Compared with `FC(F)(F)c1cccc(Cl)n1` [2-chloro-6-(trifluoromethyl)pyridine], `Clc1ccccn1` [2-chloropyridine] is lower in melting point: 29 °C for the first, -46 °C for the second.

Compared with `CCC(C)Cl` (configuration not stated) [2-chlorobutane], `Clc1ncc[nH]1` [2-chloroimidazole] is higher in melting point: -141 °C for the first, 166 °C for the second.

Work on `[O-][n+]1ccccc1Cl` [2-chloropyridine n-oxide] yielded a melting point of 69 °C.

— the Bradley open melting point set (2014)
